{"source": "patent EP0880540B1", "about": "“17-BETA-CYCLOPROPYL(AMINO/OXY) 4-AZA STEROIDS AS ACTIVE INHIBITORS OF TESTOSTERONE 5-ALPHA-REDUCTASE AND C17-20-LYASE” (Aventis Pharmaceuticals Inc., priority 1996, dated 1997)", "key": {"[1]": {"biological_target": "T1, cynomolgus monkey prostatic 5α-reductase (Macaca fascicularis, UniProt Q28892)", "T1 construct": "microsomal preparations of the 5α-reductase enzyme from laboratory animal prostate tissue; from tissue; host or cells: cynomolgus monkey prostate, microsomes", "T1 sequence (Q28892 1-254)": "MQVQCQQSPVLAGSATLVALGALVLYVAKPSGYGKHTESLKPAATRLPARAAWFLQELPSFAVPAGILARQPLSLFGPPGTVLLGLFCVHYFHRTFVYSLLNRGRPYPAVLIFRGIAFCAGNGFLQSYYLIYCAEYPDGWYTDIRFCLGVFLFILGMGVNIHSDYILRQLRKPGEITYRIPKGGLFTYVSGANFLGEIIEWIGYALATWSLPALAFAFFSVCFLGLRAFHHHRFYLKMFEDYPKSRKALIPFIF", "test": "In vitro 5α-reductase assay, prostate microsomes", "format": "biochemical", "settings": "mean of duplicates", "method": "In vitro 5α-reductase assays: The activity of the present compounds as inhibitors of steroid 5α-reductase was determined using microsomal preparations of the 5α-reductase enzyme from laboratory animal prostate tissue. Specifically, microsomes were isolated from cynomolgus monkey prostate tissue. Protein concentration of the microsomal preparations was determined prior to use of the samples. Individual assays of cynomolgus monkey prostatic 5α-reductase activity contained 0.1 M potassium phosphate-sodium citrate buffer, pH 5.6 1.0% (w/v) bovine serum albumin, […] sodium EDTA, 4 µg of microsomal protein, 1.0 mM NADPH, 5.0 mM glucose-6-phosphate, 1 IU/mL glucose-6-phosphate dehydrogenase, [1,2-^3H]-testosterone (0.15 µCi) plus unlabeled testosterone to yield 0.015 µM (Km = 0.015 µM to 0.091 µM in multiple determinations), and test compound which was dissolved in DMSO then diluted in 0.1 M potassium phosphate-sodium citrate buffer, pH 5.6, to yield a final assay concentration of 0.1% (v/v) DMSO. The same buffer and DMSO without test compound were used in control assays. Background radioactivity was determined from assays containing all components except enzyme. Assays were performed in duplicate. Microsomes, 0.1 M potassium phosphate-sodium citrate buffer, pH 5.6, and test compound were preincubated at 37°C. Aliquots of 180 µL were removed after 0 or 40 minutes of preincubation and added to […] of testosterone substrate suspended in 0.1 M potassium phosphate-sodium citrate buffer, pH 5.6, containing 10% (v/v) DMSO. Remaining enzyme activity was assayed for 10 minutes at 37°C in a Dubnoff shaker incubator.\nThe reactions were terminated by the addition of 5 mL CHCl3:methanol (2:1) and 0.9 mL water. Carrier steroids were added in the form of 2.5 µg each of testosterone, dihydrotestosterone, and 3,17-androstanediol. Steroid metabolites were then extracted according to the procedure of Moore and Wilson (Methods in Enzymol., O'Malley, B.W. and Hardman, J.G. eds., 36, 1975, pp. 466-474), the organic phase containing the steroids was evaporated using nitrogen gas, the residues were dissolved in 3% (v/v) isopropanol in hexane. The steroids were then separated by normal phase HPLC on a LiCrosorb® DIOL derivatized silica gel column (10 µm; 4 x 250 mm) with a 3% to 7.5% isopropanol in hexane gradient, followed by isocratic conditions of […] isopropanol in hexane. Radioactivity in the steroid peaks was measured using a Packard Radiomatic model HS Flo-One detector. When the compound were tested using the above procedures with cynomolgus monkey 5α-reductase, the following results were obtained: Table 2: […]"}, "[2]": {"tested_on": "Dunning H Tumor", "test": "Dunning H tumor growth in rats", "format": "in vivo, male Copenhagen rats", "settings": "MDL 105831 15 mg/kg/day PO, MDL 15910 50 mg/kg/day PO", "from_the_text": "As described in J.T. Isaacs & D.S. Coffey, Cancer Res. 41:5070-5075 (1981); W.J. Ellis & J.T. Issacs, Cancer Res. 45:6041-6050 (1985); T.W. Bedding & A.V. Schally, The Prostate 6:219-232 (1985) and P.E. Juniewicz et al. The Prostate 18:105-115 (1991), male Copenhagen rats were obtained from HARLAN-SPRAGUE-DAWLEY Inc. (Indianapolis, IN), and were individually housed in suspended wire cages and provided laboratory rodent chow (Purina 5001 pellets, Purina Mills, St. Louis, MO) and deionized water ad libum. The rats were anesthetized using sodium pentobarbital and the hair was clipped from the back dorsal area. Tumors from donor Copenhagen rats were cut into fragments of 10 mm^3 and implanted subcutaneously (one site per rat) into the prepared dorsal area.\nAnimals were selected (105 days post implantation) for the treatment phase based on tumor size. Ten animals were anesthetized with sodium pentobarbital and bilaterally castrated. The remaining animals were assigned to treatment groups (ten per group) based on mean group tumor size. Animals were kept separate throughout the study. The tested compounds were prepared in solution or suspension in a lecithin vehicle (L-α-phosphatidylcholine type XV-E) containing methylparaben and propylparaben. All treatments were performed by oral gavage (per os) at 2 cc/kg each day of study. Tumor size and rat body weights were recorded every seven days over a period of 35 days. Twenty-four hours after the last treatment animals were euthenized by CO2 and the tumors, prostate, seminal vesicles and testes were removed and weighed. In Table 4, average tumor growth is determined from the corrected group means over a 35 day period after treatment was started. […] The animals eliminated from the calculation of the corrected means were in Figure 6, animals 8, 9, 10; in Figure 7, animals 18, 19 and 20; in Figure 8, animals 27, 28, 29 and 30; and in Figure 9, animals 37, 39 and 40. The castrated controls in Figure 10 present a different problem. Here it is believed that the different tumor volumes observed throughout the group is attributable to the different sizes at the beginning of the study. Since the mean variance here is clearly attributable to factors other than the effect of the castration itself, animals 47, 48, 49 and 50 were deleted from the corrected mean. Of these, animal 47 died during the treatment period.\nTable 4 indicates the average daily growth rate, measured from the corrected mean tumor size on day 35 and day 0, comparing MDL 105831 and flutamide (MDL 15910), a known androgen receptor antagonist. […]"}}}
{"smiles": "CC12CCC3C(CC[C@H]4NC(=O)CCC34C)C1CC[C@@H]2OC1CC1", "note": "(stereo partly drawn) [MDL 103,432, 17β-Cyclopropyloxy-4-aza-5α-androstan-3-one]", "values": [{"measurement": "inhibition at 0.1 µM", "setting": "[1]; preincubation 0 min", "value": 78.7, "unit": "%"}, {"measurement": "inhibition at 0.1 µM", "setting": "[1]; preincubation 40 min", "value": 80, "unit": "%"}, {"measurement": "inhibition at 1 µM", "setting": "[1]; preincubation 0 min", "value": 98.7, "unit": "%"}, {"measurement": "inhibition at 1 µM", "setting": "[1]; preincubation 40 min", "value": 99.3, "unit": "%"}, {"measurement": "inhibition at 10 µM", "setting": "[1]; preincubation 0 min", "value": 99.4, "unit": "%"}, {"measurement": "inhibition at 10 µM", "setting": "[1]; preincubation 40 min", "value": 99.4, "unit": "%"}]}
{"smiles": "C[C@]12CC[C@H]3[C@@H](CC=C4NC(=O)CC[C@@]43C)[C@@H]1CC[C@@H]2NC1CC1", "note": "[MDL 105,831, 17β-Cyclopropylamino-4-aza-androst-5-en-3-one]", "values": [{"measurement": "Tumor Growth in Dunning H Rat, Day 0", "setting": "[2]; Day 0 (baseline), corrected group mean", "value": 328.40, "unit": "mm^3"}, {"measurement": "Tumor Growth in Dunning H Rat, Day 7", "setting": "[2]; Day 7, corrected group mean", "value": 389.90, "unit": "mm^3"}, {"measurement": "Tumor Growth in Dunning H Rat, Day 16", "setting": "[2]; Day 16, corrected group mean", "value": 497.20, "unit": "mm^3"}, {"measurement": "Tumor Growth in Dunning H Rat, Day 21", "setting": "[2]; Day 21, corrected group mean", "value": 759.40, "unit": "mm^3"}, {"measurement": "Tumor Growth in Dunning H Rat, Day 29", "setting": "[2]; Day 29, corrected group mean", "value": 1135.80, "unit": "mm^3"}, {"measurement": "Tumor Growth in Dunning H Rat, Day 35", "setting": "[2]; Day 35, corrected group mean", "value": 1041.60, "unit": "mm^3"}, {"measurement": "Δv/Δt (day 35-day 0)", "setting": "[2]; average daily growth rate from corrected mean tumor size", "value": 20.38, "unit": "mm^3/day"}]}
